Source: patent US12338243B2, “P2X7 modulators” (JANSSEN PHARMACEUTICA NV, priority 2014, dated 2025)
Read-outs that look alike come from different tables or passages of the source.

Tests used:
P2X7 [1] = biological target: T1, P2X7 (Homo sapiens, UniProt Q99572); experiment: Ca2+ flux (FLIPR) in 1321N1 cells expressing recombinant human P2X7 channel; format: cell-based; parameters: expressed in transfected cells; host or cells: 1321N1 cells; settings: 250 μM BzATP
T1 sequence (Q99572 1-595): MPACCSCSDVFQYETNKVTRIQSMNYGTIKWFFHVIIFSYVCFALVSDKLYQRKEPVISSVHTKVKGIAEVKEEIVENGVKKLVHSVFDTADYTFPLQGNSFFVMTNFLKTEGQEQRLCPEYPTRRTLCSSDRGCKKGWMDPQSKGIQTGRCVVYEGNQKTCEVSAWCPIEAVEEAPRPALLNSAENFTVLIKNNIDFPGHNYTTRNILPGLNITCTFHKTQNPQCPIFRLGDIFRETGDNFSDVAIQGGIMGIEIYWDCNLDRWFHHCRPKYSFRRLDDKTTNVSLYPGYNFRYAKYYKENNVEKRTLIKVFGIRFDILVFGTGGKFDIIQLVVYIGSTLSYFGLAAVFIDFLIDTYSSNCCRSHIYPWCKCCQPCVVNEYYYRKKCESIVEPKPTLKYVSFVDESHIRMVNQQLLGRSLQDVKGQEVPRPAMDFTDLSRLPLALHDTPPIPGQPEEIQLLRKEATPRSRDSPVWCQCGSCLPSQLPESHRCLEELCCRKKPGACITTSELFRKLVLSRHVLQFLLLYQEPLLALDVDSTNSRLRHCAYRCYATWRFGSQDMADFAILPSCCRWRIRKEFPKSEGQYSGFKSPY
In short: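 1321N1 cells expressing recombinant human P2X7, loaded 60 min with Calcium-4 dye in HEPES buffer pH 7.40 (1 mM CaCl2, 1 mM MgCl2), preincubated 30 min with compounds. Fluorescence change recorded 180 seconds after agonist addition.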

P2X7 [2] = biological target: T1, P2X7; experiment: Radioligand binding, human P2X7-1321N1 cell membranes, tritiated A-804598
Excerpt: (§1) P2X7 Antagonism in Recombinant Human P2X7 Cells or Recombinant Rat P2X7 Cells: (a) Ca^2+ Flux and (b) Radioligand Binding

rat P2X7 [3] = biological target: T2, rat P2X7 (Rattus norvegicus, UniProt Q64663); experiment: Ca2+ flux (FLIPR) in 1321N1 cells expressing recombinant rat P2X7 channel; settings: 250 μM BzATP
T2 sequence (Q64663 1-595): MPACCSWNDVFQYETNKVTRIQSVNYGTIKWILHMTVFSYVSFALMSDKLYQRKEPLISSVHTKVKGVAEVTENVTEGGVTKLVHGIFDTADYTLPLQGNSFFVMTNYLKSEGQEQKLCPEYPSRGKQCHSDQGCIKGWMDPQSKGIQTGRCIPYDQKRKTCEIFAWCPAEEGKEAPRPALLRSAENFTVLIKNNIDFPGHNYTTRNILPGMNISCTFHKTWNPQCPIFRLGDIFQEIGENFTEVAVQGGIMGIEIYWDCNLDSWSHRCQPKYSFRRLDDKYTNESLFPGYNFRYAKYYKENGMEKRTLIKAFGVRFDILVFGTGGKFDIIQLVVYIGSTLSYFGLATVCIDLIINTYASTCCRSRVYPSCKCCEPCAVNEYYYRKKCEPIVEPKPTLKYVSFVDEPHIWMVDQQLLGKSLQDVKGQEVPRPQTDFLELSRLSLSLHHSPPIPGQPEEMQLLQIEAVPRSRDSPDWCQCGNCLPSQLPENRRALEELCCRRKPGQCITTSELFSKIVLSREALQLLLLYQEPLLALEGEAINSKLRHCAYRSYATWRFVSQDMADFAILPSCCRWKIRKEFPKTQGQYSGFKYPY

P2X7 [4] = biological target: T1, P2X7; experiment: P2X7 antagonism in human PBMCs (IL-1β release, ELISA); format: cell-based; parameters: PBMCs were isolated from blood using a Ficoll density gradient technique; endogenous in cells; host or cells: human PBMCs / human whole blood from donors; settings: LPS 30 ng/ml + 0.5 mM Bz-ATP, compound 10 μM
Protocol: P2X7 Antagonism in Human Peripheral Blood Mononuclear Cells (PBMCs) and Human Whole Blood.
Human blood was collected using a blood donor program. PBMCs were isolated from blood using a Ficoll density gradient technique. Briefly, blood was laid on Ficoll solution and centrifuged at RT for 20 minutes at 2000 rpm. The buffy layer (between red blood cells and plasma) was carefully collected by aspiration, washed with PBS and centrifuged again at 1500 rpm for 15 minutes. The resulting cell pellet was washed and plated on 96 well-plates for experiments. For the Human Whole Blood experiments, 150 μl of human blood was platted on 96 well-plates. Lipopolysaccharide (LPS) (30 ng/ml) was added to each well and incubated for 1 hour. Test compounds were then added and incubated for 30 minutes. The P2X7 agonist, 2′(3′)-O-(4-benzoylbenzoyl) adenosine 5′ triphosphate (Bz-ATP) was then added at a final concentration of 0.5 mM (PBMC) or 1 mM (blood). Cells were incubated for an additional 1.5 hours. At that point, supernatant was collected and stored for IL-1β assay using manufacturer's protocol for enzyme-linked immunosorbent assay (ELISA). Data was expressed as percent control, where control is defined as the difference in IL-1β release in LPS+Bz-ATP samples and LPS only samples. Data was plotted as response (% control) versus concentration to generate IC50 values. […] Data are analyzed and graphed on Graphpad Prism 5. For analysis, each concentration point is averaged from triplicate values and the averaged values are plotted on Graphpad Prism. The IC50 for each compound is then uploaded into 3DX.

rat P2X7 [5] = biological target: T2, rat P2X7; experiment: Radioligand binding, rat P2X7-1321N1 cell membranes, tritiated A-804598
Excerpt: as §1

How did the IC50 (P2X7 [1]) turn out when `O=C(c1ccc(F)c(C(F)(F)F)c1Cl)N1CCn2c(nnc2C(F)(F)F)C1c1ccccc1` (single isomer, unassigned) [Example 95, (R*)-(2-chloro-4-fluoro-3-(trifluoromethyl)phenyl)(8-phenyl-3-(trifluoromethyl)-5,6-dihydro-[1,2,4]triazolo[4,3-a]pyrazin-7(8H)-yl)methanone] was run?
The IC50 was 9.7 nM.

What about the Ki (P2X7 [2]) of the same compound?
Its Ki is 31.6 nM.

And the IC50 (rat P2X7 [3]; FLIPR (rat) IC50 (μM))?
The IC50 was 0.211 µM.

And the “PBMC 10 μM (% control)” value (P2X7 [4])?
Its value is 8.9 % control.

Which IC50 (P2X7 [1]) does the source give for `O=C(c1cccc(C(F)(F)F)c1Cl)N1CCn2c(C(F)F)nnc2[C@H]1c1ccccc1` [Example 108, (R)-(2-chloro-3-(trifluoromethyl)phenyl)(3-(difluoromethyl)-8-phenyl-5,6-dihydro-[1,2,4]triazolo[4,3-a]pyrazin-7(8H)-yl)methanone] here?
The IC50 was 8.6 nM.

What about the Ki (rat P2X7 [5]) of the same compound?
The Ki was 10 nM.

And the Ki (P2X7 [2])?
Its Ki is 5.8 nM.

And the IC50 (rat P2X7 [3]; FLIPR (rat) IC50 (μM))?
Its IC50 is 0.0816 µM.

Which IC50 (P2X7 [1]) does the source give for `Cc1nnc2n1CCN(C(=O)c1cccc(C(F)(F)F)c1Cl)[C@H]2c1ccccc1` [Example 66, (S)-(2-chloro-3-(trifluoromethyl)phenyl)(3-methyl-8-phenyl-5,6-dihydro-[1,2,4]triazolo[4,3-a]pyrazin-7(8H)-yl)methanone] here?
Its IC50 is 2.7 nM.

What about the Ki (rat P2X7 [5]) of the same compound?
Its Ki is 2 nM.

And the Ki (P2X7 [2])?
The Ki was 7.9 nM.

And the IC50 (rat P2X7 [3]; FLIPR (rat) IC50 (μM))?
The IC50 was 0.0269 µM.

For `O=C(c1cccc(C(F)(F)F)c1Cl)N1CCn2c(nnc2C(F)(F)F)C1c1ccccc1` (racemic) [Example 75, (±)-(2-chloro-3-(trifluoromethyl)phenyl)(8-phenyl-3-(trifluoromethyl)-5,6-dihydro-[1,2,4]triazolo[4,3-a]pyrazin-7(8H)-yl)methanone], which IC50 (P2X7 [1]) is on record?
Its IC50 is 52.9 nM.

And the Ki (rat P2X7 [5])?
The Ki was 25.1 nM.

What about the Ki (P2X7 [2]) of the same compound?
Its Ki is 28.8 nM.

And the IC50 (rat P2X7 [3]; FLIPR (rat) IC50 (μM))?
Its IC50 is 0.542 µM.

For `O=C(c1cccc(C(F)(F)F)c1Cl)N1CCn2c(C3CC3)nnc2[C@@H]1c1ccccc1` [Example 76, (S)-(2-chloro-3-(trifluoromethyl)phenyl)(3-cyclopropyl-8-phenyl-5,6-dihydro-[1,2,4]triazolo[4,3-a]pyrazin-7(8H)-yl)methanone], which IC50 (P2X7 [1]) is on record?
Its IC50 is 6.7 nM.

What about the Ki (rat P2X7 [5]) of the same compound?
Its Ki is 5 nM.

And the Ki (P2X7 [2])?
The Ki was 10 nM.

What about the IC50 (rat P2X7 [3]; FLIPR (rat) IC50 (μM)) of the same compound?
Its IC50 is 0.0168 µM.

How did the IC50 (P2X7 [1]) turn out when `CCc1nnc2n1CCN(C(=O)c1cccc(C(F)(F)F)c1Cl)[C@@H]2c1ccccc1` [Example 86, (R)-(2-chloro-3-(trifluoromethyl)phenyl)(3-ethyl-8-phenyl-5,6-dihydro-[1,2,4]triazolo[4,3-a]pyrazin-7(8H)-yl)methanone] was run?
The IC50 was 2.3 nM.

And the Ki (rat P2X7 [5])?
The Ki was 10 nM.

And the Ki (P2X7 [2])?
The Ki was 12.6 nM.

What about the IC50 (rat P2X7 [3]; read-out: FLIPR (rat) IC50) of the same compound?
Its IC50 is 0.0585 µM.

For `O=C(c1ccc(F)c(C(F)(F)F)c1Cl)N1CCn2c(nnc2C(F)(F)F)C1c1ccccc1` (single isomer, unassigned) [Example 96, (S*)-(2-chloro-4-fluoro-3-(trifluoromethyl)phenyl)(8-phenyl-3-(trifluoromethyl)-5,6-dihydro-[1,2,4]triazolo[4,3-a]pyrazin-7(8H)-yl)methanone], which IC50 (P2X7 [1]) is on record?
The IC50 was 4890 nM.

And the IC50 (rat P2X7 [3]; FLIPR (rat) IC50 (μM))?
The IC50 was > 10 µM.

What about the “PBMC 10 μM (% control)” value (P2X7 [4]) of the same compound?
The value was 43.6 % control.

With `O=C(c1cccc(C(F)(F)F)c1Cl)N1CCn2c(nnc2C(F)(F)F)[C@H]1c1ccccc1` [Example 97, (R)-(2-chloro-3-(trifluoromethyl)phenyl)(8-phenyl-3-(trifluoromethyl)-5,6-dihydro-[1,2,4]triazolo[4,3-a]pyrazin-7(8H)-yl)methanone] as the compound, how does the IC50 (P2X7 [1]) read?
Its IC50 is 7.8 nM.

What about the Ki (rat P2X7 [5]) of the same compound?
The Ki was 4.7 nM.

What about the Ki (P2X7 [2]) of the same compound?
Its Ki is 12.6 nM.

What about the IC50 (rat P2X7 [3]; FLIPR (rat) IC50 (μM)) of the same compound?
Its IC50 is 0.0428 µM.

For `O=C(c1cccc(Cl)c1Cl)N1CCn2c(C(F)F)nnc2[C@H]1c1ccccc1` [Example 110, (R)-(2,3-dichlorophenyl)(3-(difluoromethyl)-8-phenyl-5,6-dihydro-[1,2,4]triazolo[4,3-a]pyrazin-7(8H)-yl)methanone], which IC50 (P2X7 [1]) is on record?
The IC50 was 3.4 nM.

What about the Ki (rat P2X7 [5]) of the same compound?
The Ki was 16.6 nM.

And the Ki (P2X7 [2])?
The Ki was 7.9 nM.

And the IC50 (rat P2X7 [3]; FLIPR (rat) IC50 (μM))?
Its IC50 is 0.441 µM.

With `O=C(c1cccc(Cl)c1Cl)N1CCn2c(nnc2C(F)(F)F)[C@H]1c1ccccc1` [Example 102, (R)-(2,3-dichlorophenyl)(8-phenyl-3-(trifluoromethyl)-5,6-dihydro-[1,2,4]triazolo[4,3-a]pyrazin-7(8H)-yl)methanone] as the compound, how does the IC50 (P2X7 [1]) read?
Its IC50 is 10.5 nM.

And the Ki (rat P2X7 [5])?
The Ki was 29.5 nM.

What about the Ki (P2X7 [2]) of the same compound?
Its Ki is 10 nM.

And the IC50 (rat P2X7 [3]; FLIPR (rat) IC50 (μM))?
The IC50 was 0.488 µM.

Which results are given for `C[C@H]1Cn2c(nnc2-c2ccc(F)cn2)CN1C(=O)c1cccc(C(F)(F)F)c1Cl` [Example 70, (S)-(2-chloro-3-(trifluoromethyl)phenyl)(3-(5-fluoropyridin-2-yl)-6-methyl-5,6-dihydro-[1,2,4]triazolo[4,3-a]pyrazin-7(8H)-yl)methanone]?
IC50 (P2X7 [1]): 6.9 nM; Ki (rat P2X7 [5]): 4 nM; Ki (P2X7 [2]): 12.6 nM; IC50 (rat P2X7 [3]; FLIPR (rat) IC50 (μM)): 0.0077 µM

Which “PBMC 10 μM (% control)” value (P2X7 [4]) does the source give for `O=C(c1ccnc(C(F)(F)F)c1Cl)N1CCn2c(nnc2C(F)(F)F)C1c1ccccc1` (single isomer, unassigned) [Example 100, (S*)-(3-chloro-2-(trifluoromethyl)pyridin-4-yl)(8-phenyl-3-(trifluoromethyl)-5,6-dihydro-[1,2,4]triazolo[4,3-a]pyrazin-7(8H)-yl)methanone] here?
The value was 102.0 % control.

For `O=C(c1cccc(C(F)(F)F)c1Cl)N1CCn2c(C3CCC3)nnc2[C@H]1c1ccccc1` [Example 93, (R)-(2-chloro-3-(trifluoromethyl)phenyl)(3-cyclobutyl-8-phenyl-5,6-dihydro-[1,2,4]triazolo[4,3-a]pyrazin-7(8H)-yl)methanone], which IC50 (P2X7 [1]) is on record?
Its IC50 is 8.1 nM.

What about the Ki (rat P2X7 [5]) of the same compound?
Its Ki is 6.3 nM.

What about the Ki (P2X7 [2]) of the same compound?
Its Ki is 15.8 nM.

What about the IC50 (rat P2X7 [3]; FLIPR (rat) IC50 (μM)) of the same compound?
Its IC50 is 0.0178 µM.

Which results are given for `CC(C)c1nnc2n1CCN(C(=O)c1cccc(C(F)(F)F)c1Cl)[C@@H]2c1ccccc1` [Example 88, (R)-(2-chloro-3-(trifluoromethyl)phenyl)(3-isopropyl-8-phenyl-5,6-dihydro-[1,2,4]triazolo[4,3-a]pyrazin-7(8H)-yl)methanone]?
IC50 (P2X7 [1]): 10.2 nM; Ki (rat P2X7 [5]): 25.1 nM; Ki (P2X7 [2]): 20 nM; IC50 (rat P2X7 [3]; FLIPR (rat) IC50 (μM)): 0.166 µM

`CC(C)(C)c1nnc2n1CCN(C(=O)c1cccc(C(F)(F)F)c1Cl)[C@@H]2c1ccccc1` [Example 81, (R)-(3-(tert-butyl)-8-phenyl-5,6-dihydro-[1,2,4]triazolo[4,3-a]pyrazin-7(8H)-yl)(2-chloro-3-(trifluoromethyl)phenyl)methanone] was tested. Which IC50 (P2X7 [1]) did it give?
The IC50 was 11.3 nM.

And the Ki (rat P2X7 [5])?
The Ki was 8.9 nM.

What about the Ki (P2X7 [2]) of the same compound?
Its Ki is 50.1 nM.

What about the IC50 (rat P2X7 [3]; read-out: FLIPR (rat) IC50) of the same compound?
Its IC50 is 0.027 µM.
